The values below come from patent US5622688A, “Macrocyclic chelants, their chelates and uses thereof in the diagnostic field” (Dibra S.p.A., priority 1994, dated 1997).

Where two headings read alike, the source gives them in different places.

For series [1] the following is noted: cited from earlier work; for formal charge: background, gadolinium chelate before salification.
The test system of another series is mice. Put plainly: Acute toxicity LD50 i.v. in mice. The class given is in vivo. The text has this: Some of the available data relative to Gd chelates of this invention are detailed in Example 4, together with a comparison with the known data of the following commercially available products: DOTAREM®, OMNISCAN®, PROHANCE®. The datum relative to Gd-DTPA-bismethylammide, Gd-DTPA-BMA, which is the active ingredient of OMNISCAN®, is also reported, even if there is remarkable difference in the LD50 values. Such a difference is known to be due to the simultaneous presence in OMNISCAN® of Gd-DTPA-BMA 500 mM, and of the complex of the same ligand with sodium and calcium, Na[CaDTPA-BMA], at a 25 mM concentration. Therefore the comparison of this last datum with those available for the compounds of this invention is more significant as far as determination homogeneity is concerned.

Series [2] can be described thus: Osmolality of aqueous solutions. The series is classed as physicochemical.
A further series is described as follows: Charge. The series is classed as physicochemical. As to conditions: Table I, own compound.

As to `O=C([O-])CN1CCN(CC(=O)[O-])CCN(CC(=O)O)CCN(CC(=O)[O-])CC1.[Gd+3]` [Gd-DOTA], the formal charge in series [1] is recorded as -1.
Take `CNC(=O)CN(CCN(CCN(CC(=O)[O-])CC(=O)NC)CC(=O)[O-])CC(=O)[O-].[Gd+3]` [GdDTPA-BMA, Gd-DTPA-bismethylamide]: the CHARGE entry in series [1] (Table I, from the data available on the product brochures) is listed as “non-ionic”.
In the case of `O=C([O-])CN(CCN(CC(=O)[O-])CC(=O)O)CCN(CC(=O)[O-])CC(=O)O.[Gd+3]` [Gd-DTPA], the formal charge in series [1] is on record as -2.
Consider `C=C(C(=O)NCCOCCO)N1CCN(CC(=O)[O-])CCN(CC(=O)[O-])CCN(CC(=O)[O-])CC1.[Gd+3]` [Example 2, Gadolinium complex of 10-[2-[[2-(2-hydroxyethoxy)ethyl]amino]-1-(methylene)-2-oxoethyl]-1,4,7,10-tetraazacyclododecan-1,4,7-triacetic acid], for which, in the series with mice, the “LD50 (mice) i.v.” value stood at 37.6 mmol/kg. The molecule further gave an OSMOLALITY in series [2] of 855 mOsm/kg H2 O. Also, the CHARGE entry in the series “Charge” is reported as “non-ionic”.
As for `CC(C(=O)NC(CCCO)(CCCO)CCCO)N1CCN(CC(=O)[O-])CCN(CC(=O)[O-])CCN(CC(=O)[O-])CC1.[Gd+3]` (stereo not shown) [Example 1, Gadolinium complex of 10-[2-[[1,1-bis(3-hydroxypropyl)-4-hydroxybutyl]amino]-1-methylene-2-oxoethyl]-1,4,7,10-tetraazacyclododecan-1,4,7-triacetic acid], the “LD50 (mice) i.v.” value with mice amounted to 23.4 mmol/kg.
